From BigSolDB 2.1

CO[C@@]1(NC(=O)CSCC#N)C(=O)N2C(C(=O)[O-])=C(CSc3nnnn3C)CS[C@@H]21.[Na+]
solubility (mole fraction)
Details | in cyclohexane | in ethanol | in ethyl acetate | in isopropanol | in n-butanol | in n-butyl acetate | in n-hexane | in n-pentanol | in n-propanol
278.15 K | 1.31e-06 | 0.000471 | 5.31e-05 | 6.74e-05 | 4.93e-05 | 3.86e-05 | 1.6e-06 | 3.1e-05 | 6.12e-05
283.15 K | 1.75e-06 | 0.000508 | 6.03e-05 | 7.58e-05 | 5.69e-05 | 4.39e-05 | 2.1e-06 | 3.94e-05 | 7.02e-05
288.15 K | 2.1e-06 | 0.000542 | 6.94e-05 | 8.93e-05 | 6.42e-05 | 5.19e-05 | 2.59e-06 | 4.82e-05 | 8.12e-05
293.15 K | 2.5e-06 | 0.000599 | 8.61e-05 | 0.000117 | 8.26e-05 | 6.35e-05 | 2.98e-06 | 5.84e-05 | 0.000105
298.15 K | 3.1e-06 | 0.000685 | 0.000105 | 0.00014 | 9.89e-05 | 7.49e-05 | 3.5e-06 | 6.75e-05 | 0.000125
303.15 K | 3.6e-06 | 0.000818 | 0.000137 | 0.00017 | 0.000124 | 8.96e-05 | 4.1e-06 | 8e-05 | 0.000153
308.15 K | 4.62e-06 | 0.00105 | 0.000168 | 0.00021 | 0.000152 | 0.000109 | 4.92e-06 | 9.75e-05 | 0.000191
313.15 K | 5.69e-06 | 0.00128 | 0.000221 | 0.000286 | 0.000196 | 0.000124 | 6e-06 | 0.000113 | 0.000244
